We go through 3 compounds from patent US6703380B2, “Prevention of cancer” (Colotech A/S, priority 1999, dated 2004).

The conditions of assay [1]: following 3 months of therapy; cited from earlier work.
The test system of assay [2] is solid, human xenografts. As to conditions: in vivo (mice); cited from earlier work.
The test system of assay [3] is human colon cancer cell lines (LoVo). As to conditions: in vitro, including CEA-producing cell lines; cited from earlier work.
Assay [4] has as its system stroke, acute myocardial infarction and/or cardiovascular death. The conditions noted are these: low-dose; cited from earlier work.
In assay [5] the test system is aberrant crypt foci (ACF) of the colon/rectum in AOM-induced rats. Put plainly: ACF of the colon/rectum in AOM-induced rats, Example 2. Format: in vivo, rat. The method, then:
The in vivo study of the effect on prevention of CRC in AOM (Azoxymethane) induced rats The rats are induced s.c 1× week in 2 weeks with an AOM solution. The effect of the specific treatment is evaluated due to the number of aberrant crypt foci (ACF) of the colon/rectum in the AOM-induced rats. The aberrant crypt score is evaluated by stereomicroscopy (40×) upon staining with Giemsa-solution (6 ml conc. Giemsa in 50 ml of PBS, pH 7.1). The crypt size is categorised as small, medium, large and X-large. The number of animals is 80 with 16 in each group. The medicaments are administered with the food. The section is 18 weeks from the first dosage. […] Data for weight, food and water are registered and analysed “Small” in the third column is the sum of small and medium of the first column “Large” in the third column is the sum of large and x-large the of second column

Setting [6] is: count per animal, listed as Asp 200.

Where “and” joins values, the source holds several entries; their conditions need not be identical. Equal entries are not always repeated.

In the case of `O=C(O)c1cc(/N=N/c2ccc(S(=O)(=O)Nc3ccccn3)cc2)ccc1O` [sulphasalazine], in assay [1], the Relative risk reduction is recorded as 0.38 (0.2 to 0.7).
Regarding `C=C1/C(=C\C=C2/CCC[C@]3(C)[C@@H]([C@H](C)CCCC(C)(C)O)CC[C@@H]23)C[C@@H](O)C[C@@H]1O` [1,25DHC, 1,25 dihydroxycholecalciferol], in assay [2], the “Growth of solid, human xenografts” value was “suppress growth”. Also, the “Growth of human colon cancer cell lines” value in assay [3] was “inhibits the growth”.
As to `CC(=O)Oc1ccccc1C(=O)O` [ASA, acetylsalicylic acid], the “Relative risk-reduction in relation to stroke, acute myocardial infarction and/or cardiovascular death” value in assay [4] is on record as “approx. 25%”. Moreover, the “Effect on (large) ACF, in words” value in assay [5] (aspirin 200 ppm without or with Ca and 1,25 DHC) was “without effect”. Besides, the “Small ACF, individual rat” value in assay [5] (count per animal, section 18 weeks from first dosage, listed as Asp 200) was 92 and 87 and 20 and 51 and 31 and 82 and 73 (2×) and 44 (2×) and 55 and 47 and 40 and 22 and 46 and 63. In addition, in assay [5] (setting [6]), the “Large (sum of large and x-large) ACF, individual rat” value is 15 and 9 and 2 (3×) and 8 and 5 (2×) and 3 (3×) and 6 and 1 (2×) and 7 and 4; the “Large ACF, individual rat” value is 13 and 8 and 2 (3×) and 5 (4×) and 3 (3×) and 1 (2×) and 6 and 4; the “Medium ACF, individual rat” value is 74 and 45 and 8 and 34 and 10 and 51 and 35 and 31 and 22 and 49 and 21 and 9 and 26 and 47 and 18 and 50; the “Small (sum of small and medium) ACF, individual rat” value was 166 and 132 and 28 and 85 and 41 and 133 and 108 and 75 and 77 and 96 and 61 and 31 and 72 and 120 and 62 and 113. Further, in assay [5] (setting [6]), the “Total ACF, individual rat” value was 181 and 141 and 30 and 93 and 43 and 138 and 111 and 78 and 80 and 102 and 62 and 33 and 79 and 125 and 66 and 114; the “X-Large ACF, individual rat” value is 2 and 1 (3×) and 0 (11×) and 3. Further, in assay [5] (group mean), the “Large (sum of large and x-large) ACF, Mean” value came out at 4.75; the “Large ACF, Mean” value turned out to be 4.25; the “Medium ACF, Mean” value came out at 33.13; the “Small (sum of small and medium) ACF, Mean” value was found to be 87.50. Also, in assay [5] (group mean), the “Small ACF, Mean” value was found to be 54.38; the “Total ACF, Mean” value is 92.25; the “X-Large ACF, Mean” value is 0.50.
